Results published in patent US12491170B2, “Stable treprostinil prodrugs” (United Therapeutics Corporation, priority 2020, dated 2025).
Read-outs that look alike come from different tables or passages of the source.

What was measured:
[1] = dog
[2] = Stability in liver microsomes, human; conditions: for AUC: human
[3] = Stability in liver microsomes, rat
[4] = Stability in cryopreserved hepatocytes, human; conditions: for AUC: human
[5] = rat
[6] = Stability in cryopreserved hepatocytes, dog; conditions: for AUC: dog
[7] = Stability in cryopreserved hepatocytes, rat; conditions: for AUC: rat
[8] = Stability in liver microsomes, dog

Row | SMILES | AUC [1] [µmol·min/L] | Trep Concentration 0 min [2] [µM] | Trep Concentration 10 min [2] [µM] | Trep Concentration 20 min [2] [µM] | Trep Concentration 30 min [2] [µM] | Trep Concentration 60 min [2] [µM] | AUC [2] [µmol·min/L] | Trep Concentration 0 min [3] [µM] | Trep Concentration 10 min [3] [µM] | Trep Concentration 20 min [3] [µM] | Trep Concentration 30 min [3] [µM] | Trep Concentration 60 min [3] [µM] | Trep Concentration (μM) 0 min [4] [µM] | Trep Concentration (μM) 15 min [4] [µM] | Trep Concentration (μM) 30 min [4] [µM] | Trep Concentration (μM) 60 min [4] [µM] | Trep Concentration (μM) 120 min [4] [µM] | AUC [4] [µmol·min/L] | AUC [5] [µmol·min/L] | Trep Concentration (μM) 0 min [6] [µM] | other results
1 | CCCCCC(CCC1C(O)CC2Cc3c(cccc3OCC(=O)O)CC21)OCC(=O)O (stereo not drawn) [LVII] | 0.00 | 0 | 0 | 0 | 0 | 0 | 0.00 | 0 | 0 | 0 | 0 | 0 | 0 | 0 | 0 | 0 | 0 | 0.00 | 0.00 | 0 | Trep Concentration (μM) 15 min [6]: 0 µM; Trep Concentration (μM) 30 min [6]: 0 µM; Trep Concentration (μM) 60 min [6]: 0 µM; Trep Concentration (μM) 120 min [6]: 0 µM; AUC [6]: 0.00 µmol·min/L; Trep Concentration (μM) 0 min [7]: 0 µM; Trep Concentration (μM) 15 min [7]: 0 µM; Trep Concentration (μM) 30 min [7]: 0 µM; Trep Concentration (μM) 60 min [7]: 0 µM; Trep Concentration (μM) 120 min [7]: 0 µM; AUC [7]: 0.00 µmol·min/L; Trep Concentration 0 min [8]: 0 µM; Trep Concentration 10 min [8]: 0 µM; Trep Concentration 20 min [8]: 0 µM; Trep Concentration 30 min [8]: 0 µM; Trep Concentration 60 min [8]: 0 µM
2 | CCCCCC(CCC1C(O)CC2Cc3c(cccc3OCC(=O)O)CC21)OC(=O)c1ccc(C(F)(F)F)cc1 (stereo not drawn) [LXII] | 16.64 | 0.0917 | 0.141 | 0.174 | 0.2 | 0.206 | 10.70 | 0.0741 | 0.0998 | 0.124 | 0.139 | 0.139 | 0 | 0.0881 | 0.14 | 0.194 | 0.222 | 19.86 | 7.47 | 0 | Trep Concentration (μM) 15 min [6]: 0.0486 µM; Trep Concentration (μM) 30 min [6]: 0.0833 µM; Trep Concentration (μM) 60 min [6]: 0.128 µM; Trep Concentration (μM) 120 min [6]: 0.166 µM; AUC [6]: 13.34 µmol·min/L; Trep Concentration (μM) 0 min [7]: 0.00378 µM; Trep Concentration (μM) 15 min [7]: 0.0946 µM; Trep Concentration (μM) 30 min [7]: 0.156 µM; Trep Concentration (μM) 60 min [7]: 0.227 µM; Trep Concentration (μM) 120 min [7]: 0.264 µM; AUC [7]: 23.09 µmol·min/L; Trep Concentration 0 min [8]: 0.127 µM; Trep Concentration 10 min [8]: 0.188 µM; Trep Concentration 20 min [8]: 0.254 µM; Trep Concentration 30 min [8]: 0.3 µM; Trep Concentration 60 min [8]: 0.372 µM

More lines, main results first:

Row | AUC [1] [µmol·min/L] | Trep Concentration 0 min [2] [µM] | Trep Concentration 10 min [2] [µM] | Trep Concentration 20 min [2] [µM] | Trep Concentration 30 min [2] [µM] | Trep Concentration 60 min [2] [µM] | AUC [2] [µmol·min/L] | Trep Concentration 0 min [3] [µM] | Trep Concentration 10 min [3] [µM] | Trep Concentration 20 min [3] [µM] | Trep Concentration 30 min [3] [µM] | Trep Concentration 60 min [3] [µM] | Trep Concentration (μM) 0 min [4] [µM] | Trep Concentration (μM) 15 min [4] [µM] | Trep Concentration (μM) 30 min [4] [µM] | Trep Concentration (μM) 60 min [4] [µM] | Trep Concentration (μM) 120 min [4] [µM] | AUC [4] [µmol·min/L] | AUC [5] [µmol·min/L] | Trep Concentration (μM) 0 min [6] [µM] | SMILES | other results
3 | 20.45 | 0.202 | 0.302 | 0.322 | 0.337 | 0.352 | 19.27 | 0.0583 | 0.0944 | 0.0864 | 0.0909 | 0.123 | 0 | 0.342 | 0.304 | 0.345 | 0.347 | 37.91 | 5.76 | 0 | CCCCCC(CCC1C(O)CC2Cc3c(cccc3OCC(=O)O)CC21)OC(=O)c1ccc(C)cc1 (stereo not drawn) [XLVIII] | Trep Concentration (μM) 15 min [6]: 0.0841 µM; Trep Concentration (μM) 30 min [6]: 0.115 µM; Trep Concentration (μM) 60 min [6]: 0.177 µM; Trep Concentration (μM) 120 min [6]: 0.214 µM; AUC [6]: 18.23 µmol·min/L; Trep Concentration (μM) 0 min [7]: 0 µM; Trep Concentration (μM) 15 min [7]: 0.1 µM; Trep Concentration (μM) 30 min [7]: 0.141 µM; Trep Concentration (μM) 60 min [7]: 0.221 µM; Trep Concentration (μM) 120 min [7]: 0.318 µM; AUC [7]: 24.16 µmol·min/L; Trep Concentration 0 min [8]: 0.119 µM; Trep Concentration 10 min [8]: 0.219 µM; Trep Concentration 20 min [8]: 0.322 µM; Trep Concentration 30 min [8]: 0.366 µM; Trep Concentration 60 min [8]: 0.475 µM
4 | 55.49 | 0.326 | 0.342 | 0.341 | 0.326 | 0.23 | 18.43 | 0.779 | 0.791 | 0.79 | 0.802 | 0.681 | 0.041 | 0.228 | 0.264 | 0.312 | 0.328 | 33.55 | 45.96 | 0.0779 | CCCCC[C@H]1CC[C@@H]2[C@H]3Cc4cccc(OCC(=O)O)c4C[C@H]3C[C@H]2OC(=O)O1 [XXIV] | Trep Concentration (μM) 15 min [6]: 0.461 µM; Trep Concentration (μM) 30 min [6]: 0.438 µM; Trep Concentration (μM) 60 min [6]: 0.349 µM; Trep Concentration (μM) 120 min [6]: 0.296 µM; AUC [6]: 41.94 µmol·min/L; Trep Concentration (μM) 0 min [7]: 0.365 µM; Trep Concentration (μM) 15 min [7]: 0.581 µM; Trep Concentration (μM) 30 min [7]: 0.531 µM; Trep Concentration (μM) 60 min [7]: 0.482 µM; Trep Concentration (μM) 120 min [7]: 0.431 µM; AUC [7]: 58.02 µmol·min/L; Trep Concentration 0 min [8]: 0.892 µM; Trep Concentration 10 min [8]: 0.975 µM; Trep Concentration 20 min [8]: 0.948 µM; Trep Concentration 30 min [8]: 0.945 µM; Trep Concentration 60 min [8]: 0.86 µM
5 | 0.11 | 0 | 0 | 0 | 0 | 0 | 0.00 | 0 | 0 | 0 | 0 | 0 | 0 | 0 | 0 | 0 | 0 | 0.00 | 0.00 | 0 | CCCCCC1CCC2C(CC3Cc4c(cccc4OCC(=O)O)CC32)OP(=O)(Oc2ccccc2)O1 (mixture of isomers) [XXVIII] | Trep Concentration (μM) 15 min [6]: 0 µM; Trep Concentration (μM) 30 min [6]: 0 µM; Trep Concentration (μM) 60 min [6]: 0 µM; Trep Concentration (μM) 120 min [6]: 0.00339 µM; AUC [6]: 0.10 µmol·min/L; Trep Concentration (μM) 0 min [7]: 0 µM; Trep Concentration (μM) 15 min [7]: 0 µM; Trep Concentration (μM) 30 min [7]: 0 µM; Trep Concentration (μM) 60 min [7]: 0 µM; Trep Concentration (μM) 120 min [7]: 0 µM; AUC [7]: 0.00 µmol·min/L; Trep Concentration 0 min [8]: 0 µM; Trep Concentration 10 min [8]: 0 µM; Trep Concentration 20 min [8]: 0.00553 µM; Trep Concentration 30 min [8]: 0.003 µM; Trep Concentration 60 min [8]: 0 µM
